Target: human PAD4 (hPAD4) (Homo sapiens (Human), UniProt Q9UM07)
Test: RFMS Human PAD4 Functional Assay 1
Format: biochemical
Settings: RFMS assay 1; 5 nM hPAD4, 250 μM BAEE substrate, 50 μM calcium, 37° C.
Procedure, shortened: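 Citrullination product read by RapidFire triple-quad MRM against a modified-citrulline internal standard, after TCA stop and 30 min phenyl glyoxal step at 37 °C. Reaction: 250 μM BAEE, 5 nM human PAD4, 90 min at 37 °C, pH 7.5 HEPES buffer with 50 μM calcium and 5 μM TPEN, following 30 min compound–enzyme preincubation (max 50 μM).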

Sequence of human PAD4 (hPAD4) (Q9UM07 whole entry): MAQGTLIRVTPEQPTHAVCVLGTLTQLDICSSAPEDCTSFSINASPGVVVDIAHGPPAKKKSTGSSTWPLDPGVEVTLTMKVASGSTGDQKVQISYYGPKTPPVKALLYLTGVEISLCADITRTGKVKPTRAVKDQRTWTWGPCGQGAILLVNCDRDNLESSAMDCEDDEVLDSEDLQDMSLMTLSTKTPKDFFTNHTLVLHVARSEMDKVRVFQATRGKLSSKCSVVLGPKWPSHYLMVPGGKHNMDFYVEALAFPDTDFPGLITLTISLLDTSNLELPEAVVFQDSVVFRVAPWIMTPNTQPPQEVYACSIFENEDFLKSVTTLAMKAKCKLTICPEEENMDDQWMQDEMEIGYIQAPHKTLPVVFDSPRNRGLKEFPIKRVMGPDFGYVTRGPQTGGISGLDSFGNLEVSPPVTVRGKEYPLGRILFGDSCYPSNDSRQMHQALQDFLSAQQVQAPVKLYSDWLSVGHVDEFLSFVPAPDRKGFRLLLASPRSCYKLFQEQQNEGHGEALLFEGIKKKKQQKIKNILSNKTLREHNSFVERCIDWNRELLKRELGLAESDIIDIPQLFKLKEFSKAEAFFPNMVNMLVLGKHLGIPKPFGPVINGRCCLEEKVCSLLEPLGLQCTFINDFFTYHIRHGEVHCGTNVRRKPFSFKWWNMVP

Row | SMILES | IC50 [nM]
1 | COc1cc(C(=O)N2CC3CCC2[C@@H]3N)cc2sc(-c3cc4ccc(-c5ccc6c(c5)CNC6=O)nc4n3CC3CC3)c(C)c12 (stereo partly drawn) [Example 132, 5-(2-(6-((7R)-7-Amino-2-azabicyclo[2.2.1]heptane-2-carbonyl)-4-methoxy-3-methylbenzo-[b]thiophen-2-yl)-1-(cyclopropylmethyl)-1H-pyrrolo[2,3-b]pyridin-6-yl)isoindolin-1-one] | 476
2 | COc1cc(C(=O)N2CC3CCC2[C@@H]3N)cc2sc(-c3cc4ccc(-c5cccc(O)c5F)nc4n3CC3CC3)c(C)c12 (stereo partly drawn) [Example 134, ((7R)-7-Amino-2-azabicyclo[2.2.1]heptan-2-yl)(2-(1-(cyclopropylmethyl)-6-(2-fluoro-3-hydroxyphenyl)-1H-pyrrolo[2,3-b]pyridin-2-yl)-4-methoxy-3-methylbenzo[b]thiophen-6-yl)methanone] | 212
3 | COc1cc(C(=O)N2CC3CCC2[C@@H]3N)cc2sc(-c3cc4ccc(-c5ccc6c(c5)C(=O)NC6)nc4n3CC3CC3)c(C)c12 (stereo partly drawn) [Example 135, 6-(2-(6-((7R)-7-Amino-2-azabicyclo[2.2.1]heptane-2-carbonyl)-4-methoxy-3-methylbenzo[b]thiophen-2-yl)-1-(cyclopropylmethyl)-1H-pyrrolo[2,3-b]pyridin-6-yl)isoindolin-1-one] | 233
4 | COc1cc(C(=O)N2CC3CCC2[C@@H]3N)cc2sc(-c3cc4ccc(-c5ccc(O)c(F)c5)nc4n3CC3CC3)c(C)c12 (stereo partly drawn) [Example 136, ((7R)-7-Amino-2-azabicyclo[2.2.1]heptan-2-yl)(2-(1-(cyclopropylmethyl)-6-(3-fluoro-4-hydroxyphenyl)-1H-pyrrolo[2,3-b]pyridin-2-yl)-4-methoxy-3-methylbenzo[b]thiophen-6-yl)methanone] | 705
5 | COc1cc(C(=O)N2C[C@H](N)C[C@@H](F)C2)cc2sc(-c3cc4cccnc4n3CC3CC3)c(C)c12 [Example 138, ((3R,5R)-3-Amino-5-fluoropiperidin-1-yl)(2-(1-(cyclopropylmethyl)-1H-pyrrolo[2,3-b]pyridin-2-yl)-4-methoxy-3-methylbenzo[b]thiophen-6-yl)methanone] | 252
6 | COc1cc(C(=O)N2C[C@H](N)C[C@@H](F)C2)cc2sc(-c3cc4ccc(-c5ccc6c(c5)CNC6=O)nc4n3CC3CC3)c(C)c12 [Example 139, 5-(2-(6-((3R,5R)-3-Amino-5-fluoropiperidine-1-carbonyl)-4-methoxy-3-methylbenzo[b]thiophen-2-yl)-1-(cyclopropylmethyl)-1H-pyrrolo[2,3-b]pyridin-6-yl)isoindolin-1-one] | 198
7 | COc1cc(C(=O)N2C[C@H](N)C[C@@H](F)C2)cc2sc(-c3cc4ccc(-c5ccc6c(c5)C(=O)NC6)nc4n3CC3CC3)c(C)c12 [Example 140, 6-(2-(6-((3R,5R)-3-Amino-5-fluoropiperidine-1-carbonyl)-4-methoxy-3-methylbenzo[b]thiophen-2-yl)-1-(cyclopropylmethyl)-1H-pyrrolo[2,3-b]pyridin-6-yl)isoindolin-1-one] | 346
8 | COc1cc(C(=O)N2C[C@H](N)C[C@@H](F)C2)cc2sc(-c3cc4ccc(N5CCC(OC)CC5)nc4n3CC3CC3)c(C)c12 [Example 142, ((3R,5R)-3-Amino-5-fluoropiperidin-1-yl)(2-(1-(cyclopropylmethyl)-6-(4-methoxypiperidin-1-yl)-1H-pyrrolo[2,3-b]pyridin-2-yl)-4-methoxy-3-methylbenzo[b]thiophen-6-yl)methanone] | 642
9 | COc1cc(C(=O)N2C[C@H](N)C[C@@H](F)C2)cc2sc(-c3cc4ccc(-c5ccc6c(c5)C(=O)NC6)cc4n3CC3CC3)c(C)c12 [Example 143, 6-(2-(6-((3R,5R)-3-Amino-5-fluoropiperidine-1-carbonyl)-4-methoxy-3-methylbenzo[b]thiophen-2-yl)-1-(cyclopropylmethyl)-1H-indol-6-yl)isoindolin-1-one] | 588
10 | COc1cc(C(=O)N2CC3CCC2[C@@H]3N)cc2oc(-c3cc4cccnc4n3CC3CC3)c(C)c12 (stereo partly drawn) [Example 145, ((7R)-7-Amino-2-azabicyclo[2.2.1]heptan-2-yl)(2-(1-(cyclopropylmethyl)-1H-pyrrolo[2,3-b]pyridin-2-yl)-4-methoxy-3-methylbenzofuran-6-yl)methanone] | 285
11 | COc1cc(C(=O)N2CC3CCC2[C@@H]3N)cc2oc(-c3cc4ccc(Cl)nc4n3CC3CC3)c(C)c12 (stereo partly drawn) [Example 146, ((7R)-7-Amino-2-azabicyclo[2.2.1]heptan-2-yl)(2-(6-chloro-1-(cyclopropylmethyl)-1H-pyrrolo[2,3-b]pyridin-2-yl)-4-methoxy-3-methylbenzofuran-6-yl)methanone] | 1210
12 | COc1cc(C(=O)N2C[C@H](N)C[C@@H](F)C2)cc2oc(-c3cc4cccnc4n3CC3CC3)c(C)c12 [Example 147, ((3R,5R)-3-Amino-5-fluoropiperidin-1-yl)(2-(1-(cyclopropylmethyl)-1H-pyrrolo[2,3-b]pyridin-2-yl)-4-methoxy-3-methylbenzofuran-6-yl)methanone] | 954
13 | COc1cc(C(=O)N2CC3CCC2[C@@H]3N)cc2oc(-c3cc4ccccc4n3CC3CC3)c(C)c12 (stereo partly drawn) [Example 148, ((7R)-7-Amino-2-azabicyclo[2.2.1]heptan-2-yl)(2-(1-(cyclopropylmethyl)-1H-indol-2-yl)-4-methoxy-3-methylbenzofuran-6-yl)methanone] | 442
14 | COc1cc(C(=O)N2CC3CCC2[C@@H]3N)cc2oc(-c3cc4ccc(C)cc4n3CC3CC3)c(C)c12 (stereo partly drawn) [Example 151, ((7R)-7-Amino-2-azabicyclo[2.2.1]heptan-2-yl)(2-(1-(cyclopropylmethyl)-6-methyl-1H-indol-2-yl)-4-methoxy-3-methylbenzofuran-6-yl)methanone] | 325
15 | COc1cc(C(=O)N2CC3CCC2[C@@H]3N)cc2oc(-c3cc4ccc(-c5ccc(C(N)=O)c(Cl)c5)cc4n3CC3CC3)c(C)c12 (stereo partly drawn) [Example 153, 4-(2-(6-((7R)-7-Amino-2-azabicyclo[2.2.1]heptane-2-carbonyl)-4-methoxy-3-methylbenzofuran-2-yl)-1-(cyclopropylmethyl)-1H-indol-6-yl)-2-chlorobenzamide] | 628

Stronger by IC50, values ahead:

Row | IC50 [nM] | SMILES
16 | 192 | COc1cc(C(=O)N2CC3CCC2[C@@H]3N)cc2oc(-c3cc4ccc(-c5ccc(C(N)=O)c(F)c5)cc4n3CC3CC3)c(C)c12 (stereo partly drawn) [Example 152, 4-(2-(6-((7R)-7-Amino-2-azabicyclo[2.2.1]heptane-2-carbonyl)-4-methoxy-3-methylbenzofuran-2-yl)-1-(cyclopropylmethyl)-1H-indol-6-yl)-2-fluorobenzamide]
17 | 187 | COc1cc(C(=O)N2CC3CCC2[C@@H]3N)cc2oc(-c3cc4ccc(-c5ccc6c(c5)C(=O)NC6)cc4n3CC3CC3)c(C)c12 (stereo partly drawn) [Example 150, 6-(2-(6-((7R)-7-Amino-2-azabicyclo[2.2.1]-heptane-2-carbonyl)-4-methoxy-3-methylbenzofuran-2-yl)-1-(cyclopropylmethyl)-1H-indol-6-yl)isoindolin-1-one]
18 | 179 | COc1cc(C(=O)N2C[C@H](N)C[C@@H](F)C2)cc2sc(-c3cc4ccc(-c5ccc(C(N)=O)c(F)c5)nc4n3CC3CC3)c(C)c12 [Example 141, 4-(2-(6-((3R,5R)-3-Amino-5-fluoropiperidine-1-carbonyl)-4-methoxy-3-methylbenzo[b]thiophen-2-yl)-1-(cyclopropylmethyl)-1H-pyrrolo[2,3-b]pyridin-6-yl)-2-fluorobenzamide]
19 | 164 | COc1cc(C(=O)N2C[C@H](N)C[C@@H](F)C2)cc2sc(-c3cc4ccc(-c5ccc6c(c5)CNC6=O)cc4n3CC3CC3)c(C)c12 [Example 144, 5-(2-(6-((3R,5R)-3-Amino-5-fluoropiperidine-1-carbonyl)-4-methoxy-3-methylbenzo[b]thiophen-2-yl)-1-(cyclopropylmethyl)-1H-indol-6-yl)isoindolin-1-one]
20 | 146 | COc1cc(C(=O)N2CC3CCC2[C@@H]3N)cc2sc(-c3cc4ccc(N5CCC(OC)CC5)cc4n3CC3CC3)c(C)c12 (stereo partly drawn) [Example 131, ((7R)-7-Amino-2-azabicyclo[2.2.1]heptan-2-yl)(2-(1-(cyclopropylmethyl)-6-(4-methoxypiperidin-1-yl)-1H-indol-2-yl)-4-methoxy-3-methylbenzo[b]thiophen-6-yl)methanone]
21 | 129 | COc1cc(C(=O)N2CC3CCC2[C@@H]3N)cc2sc(-c3cc4ccc(-c5ccc(C(N)=O)c(F)c5)nc4n3CC3CC3)c(C)c12 (stereo partly drawn) [Example 133, 4-(2-(6-((7R)-7-Amino-2-azabicyclo[2.2.1]heptane-2-carbonyl)-4-methoxy-3-methylbenzo[b]thiophen-2-yl)-1-(cyclopropylmethyl)-1H-pyrrolo[2,3-b]pyridin-6-yl)-2-fluorobenzamide]
22 | 111 | COc1cc(C(=O)N2CC3CCC2[C@@H]3N)cc2oc(-c3cc4ccc(-c5ccc6c(c5)CNC6=O)cc4n3CC3CC3)c(C)c12 (stereo partly drawn) [Example 149, 5-(2-(6-((7R)-7-Amino-2-azabicyclo[2.2.1]heptane-2-carbonyl)-4-methoxy-3-methylbenzofuran-2-yl)-1-(cyclopropylmethyl)-1H-indol-6-yl)isoindolin-1-one]
23 | 71 | COc1cc(C(=O)N2CC3CCC2[C@@H]3N)cc2sc(-c3cc4ccc(N5CCC(OC)CC5)nc4n3CC3CC3)c(C)c12 (stereo partly drawn) [Example 137, ((7R)-7-Amino-2-azabicyclo[2.2.1]heptan-2-yl)(2-(1-(cyclopropylmethyl)-6-(4-methoxypiperidin-1-yl)-1H-pyrrolo[2,3-b]pyridin-2-yl)-4-methoxy-3-methylbenzo[b]thiophen-6-yl)methanone]
24 | 38 | COc1cc(C(=O)N2CC3CCC2[C@@H]3N)cc2sc(-c3cc4ccc(N5CCC(N)CC5)cc4n3CC3CC3)c(C)c12 (stereo partly drawn) [Example 130, ((7R)-7-Amino-2-azabicyclo[2.2.1]heptan-2-yl)(2-(6-(4-aminopiperidin-1-yl)-1-(cyclopropylmethyl)-1H-indol-2-yl)-4-methoxy-3-methylbenzo[b]thiophen-6-yl)methanone]
